# Source: patent publication US20230139328A1, “DOSAGE FORMS FOR IMPROVING ORGAN TRANSPLANTATION, GRAFT VERSUS HOST DISEASE AND STEM CELLS TRANSPLANTS” (Aphios Corporation, priority 2020, published 2023)
# “Also recorded” adds a separate entry of the source.
# What was measured:
# [1] = test system: neutrophil migration across confluent HMECs; test: LTB4 induced neutrophil migration across HMEC monolayers (transwell, MPO assay); format: cell-based, human; details: for effect on LTB4 induced neutrophil migration at 1 nM / effect on LTB4 induced neutrophil TEM at higher doses (100 nM): 1 h pretreatment, 100 nM LTB4; for effect on LTB4 induced neutrophil migration (dose response): 1 h pretreatment at 1-100 nM, 100 nM LTB4, 3 h migration
# Protocol: FIG. 6 graphically depicts protection against LTB4 induced PMN TEM with PMA up to 48 h after pretreatment. HMECs were pretreated for 1 h with PMA and washed with HBSS three times to remove PMA prior to replacement of culture medium. Neutrophil migration studies were then performed at 0, 24, or 48 hours. Migration was stimulated by adding 500,000 neutrophils to the top well and 100 nM LTB4 to the lower well at 0, 24, and 48 hours after PMA pretreatment. […] PMA (100 nM, (10^−7M) reduced LTB4 induced migration up to 48 hours after 1 h of endothelial-specific pretreatment (***p<0.001).
# Referring now to FIG. 7, FIG. 7 graphically depicts protection from LTB4 induced PMN TEM with Bryostatin-1 up to 48 hours after pretreatment. HMECs were pretreated for 1 h with Bryostatin-1 and washed with HBSS three times to remove Bryostatin-1 prior to replacement of culture medium. Neutrophil migration studies were then performed at 0, 24, or 48 hours. Migration was stimulated by adding 500,000 neutrophils to the top well and 100 nM LTB4 to the lower well at 0, 24, and 48 hours after Bryostatin-1 pretreatment. […] Bryostatin-1 (100 nM) reduced LTB4 induced migration up to 48 hours after 1-hour endothelial pretreatment (***p<0.001).
# Cell Culture: HMECs were a generous gift from Dr. Francisco Candal (Centers for Disease Control), and are derived from the subcutaneous microvasculature. HMECs were maintained in MCDB-131 supplemented with 10% FCS, 1% antibiotic antimycotic, 10 ng/ml EGF, and […] hydrocortisone. The cell cultures were incubated at 37° C. in a humidified atmosphere with 7.5% CO2 and expanded by brief trypsinization (0.25% trypsin in phosphate-buffered saline containing 0.02% EDTA). HMECs were seeded onto 8 μm inserts for migration assays and 48-well plates for endothelial viability studies. Human umbilical vein endothelial cells (HUVECs) were harvested from umbilical cords by 0.25% collagenase treatment for 20 min at 37° C. HUVECs were maintained in Endothelial Growth Medium (EGM) supplemented with Bovine Brain Extract. The cell cultures were incubated at 37° C. in a 100% humidified atmosphere with 5% C02 and expanded by brief trypsinization. Primary passage HUVEC were seeded onto fibronectin coated (25 μg/ml)8 μm inserts for migration assays and 48-well plates for endothelial viability studies. Culture medium was replaced every second day. Cells were identified as endothelial cells by their cobblestone appearance at confluency, positive labeling with acetylated low density lipoprotein labeled with 1,11-dioctadecyl-1 3,3,31,31,3-tetramethylindocarbocyanine perchlorate (Dil-Ac-LDL; Biomedical Technologies, Inc.) and mouse antihuman factor […] (Calbiochem, San Diego, Calif.).
# Neutrophil Isolation: Neutrophils were isolated using a Ficoll gradient. Whole blood was taken from human donors, and 5 ml was layered on top of two layers of Histopaque. Tubes were spun at 2,100 rpm for 40 min. The neutrophil layer was added to cold PBS and re-spun at 2,100 rpm for 5 min. Supernatant was removed and neutrophils were suspended in a fixed amount of PBS to determine cell count. Cells were kept on ice until assays were performed.
# […] Inserts were washed three times with Hank's Balanced Salt Solution (HBSS) (to eliminate drug effects on the neutrophils) and placed in a new plate containing either 500 μL 100 nM LTB4, or HBSS alone for control. 500 μL HBSS was then added to the top well and spiked with 500,000 neutrophils. For TNF-α experiments, HMECs were left in 20 ng/ml TNF-α in MCDB-131 for 24 h TNF-α was removed and HMECs washed three times. […] The drug was removed, and cells were washed three times. 500 μL HBSS was added to both upper and lower chambers and spiked with 500,000 neutrophils. Neutrophils were allowed to migrate for 3 h at 37° C. Migration was stopped by removing the inserts and migration was measured using the myeloperoxidase (MPO) assay.
# Myeloperoxidase Assay: Neutrophil migration was measured using myeloperoxidase (MPO) analysis. […]
# [2] = cited from earlier work
# T84 intestinal epithelia = details: cited from earlier work
# [3] = test system: PKC-δ siRNA nucleofected HUVEC; test: LTB4 mediated neutrophil migration across PKC-δ siRNA nucleofected HUVEC; format: cell-based, human; details: 100 nM, 1 h; PKC-δ knockdown
# From the text: Because studies in FIG. 8 could not discriminate between PKC-δ and […] isoforms mediating the effect of Bryostatin-1, we knocked down individual isoforms using siRNA technology. In order to verify that we could knock down particular isoforms of PKC, specifically PKC-8 and PKC-ε isoforms in HUVEC, siRNA which selectively bind to and eliminate human PKC-8 and PKC-ε mRNAs were nucleofected into HUVEC prior to migration studies. […] HUVEC cells treated using these approaches were then subjected to chemotaxis studies with Bryostatin-1 to elucidate the mechanism of Bryostatin-1 mediated inhibition of LTB4 induced PMN migration.
# Neutrophil Transendothelial Migration (TEM) Restoration Studies: HUVECs were pretreated with Go-6983 (1, 10, 100 nM), or Go-6976 (1, 10,100 nM) for 30 minutes, then spiked with 100 nM Bryostatin-1 for 1 hour. […] Migration was stopped by removing the inserts and migration was measured using the MPO assay.
# Myeloperoxidase Assay: Neutrophil migration was measured using myeloperoxidase (MPO) analysis. […] The supernatant was removed, and MPO activity was measured using TMB/peroxide as chromogen. The reaction was stopped with sulfuric acid and absorbance was read at 450 nm using a microplate reader. […] Data was expressed as “% neutrophil migration”, which allowed cumulative statistical analysis to be done and account for unpreventable batch-to-batch variations. […]
SMILES,effect on LTB4 induced neutrophil migration at 1 nM [1],effect on LTB4 induced neutrophil TEM at higher doses (100 nM) [1],effect on LTB4 induced neutrophil migration (dose response) [1],"major side effects associated with use ([2]; Phase II trials, combination with other drugs, cancers)",cardiovascular disturbances or edema ([2]; clinical use),adverse effects at dosing ranges higher than 100 ng/ml plasma level ([2]; healthy subjects and cancer patients),"time after pretreatment for which reduction of LTB4 induced migration is maintained, HMECs ([1]; single 1 h 100 nM pretreatment, washed, tested at 0, 24, 48 h) [h]",barrier function and TNF-α induced barrier loss (T84 intestinal epithelia),effect on LTB4 mediated neutrophil migration in PKC-δ siRNA nucleofected HUVEC [3]
"CCCCCCCCCCCCCC(=O)O[C@@H]1[C@@H](C)[C@@]2(O)[C@@H](C=C(CO)C[C@]3(O)C(=O)C(C)=C[C@@H]23)[C@@H]2C(C)(C)[C@]12OC(C)=O [PMA, phorbol myristate acetate]",did not reduce PMN TEM; also recorded: had no effect,attenuated neutrophil TEM to levels below that of basal migration,dose-dependently reduced; also recorded: reduced LTB4 induced migration in a dose dependent manner,–,–,–,–,–,–
CCC/C=C/C=C/C(=O)O[C@H]1/C(=C/C(=O)OC)C[C@H]2C[C@H]([C@@H](C)O)OC(=O)C[C@H](O)C[C@@H]3C[C@H](OC(C)=O)C(C)(C)[C@](O)(C[C@@H]4C/C(=C/C(=O)OC)C[C@H](/C=C/C(C)(C)[C@]1(O)O2)O4)O3 [Bryostatin-1],did not reduce PMN TEM,attenuated neutrophil TEM to levels below that of basal migration,dose-dependently reduced; also recorded: reduced LTB4 induced migration in a dose dependent manner,"myalgias, nausea, and vomiting",no cardiovascular disturbances or evidence of edema have been observed,no adverse effects,48,enhances barrier function and inhibits barrier loss induced by TNF-α,restored the normal level of neutrophil trans endothelial migration; also recorded: will not inhibit LTB4 mediated neutrophil migration
